Laboratory results: ChEMBL document CHEMBL1201862, “PubChem BioAssay data set” (2004)
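Interpolation was linear, between the two tested concentrations surrounding the appropriate level; five concentrations were tested over 48 hours in 96-well plates. GI50: concentration for 50% inhibition of growth.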 Activity calls are given as the source filed them. Rule as the data show it: active = GI50 up to about 1.1 µM and inactive = higher.

Experiments:
Assay in all cases: NCI-60 cell line screen, 48 h
SK-MEL-2 = tested on: SK-MEL-2
786-0 = tested on: 786-0
T47D = tested on: T47D
UO-31 = tested on: UO-31
MDA-N = tested on: MDA-N
HT-29 = tested on: HT-29
SK-MEL-5 = tested on: SK-MEL-5
U-251 = tested on: U-251
ACHN = tested on: ACHN
UACC-62 = tested on: UACC-62
SNB-19 = tested on: SNB-19
NCI/ADR-RES = tested on: NCI/ADR-RES
DU-145 = tested on: DU-145
PC-3 = tested on: PC-3
OVCAR-4 = tested on: OVCAR-4
Hs-578T = tested on: Hs-578T
MCF7 = tested on: MCF7
BT-549 = tested on: BT-549
MOLT-4 = tested on: MOLT-4
SK-OV-3 = tested on: SK-OV-3
NCI-H460 = tested on: NCI-H460
KM12 = tested on: KM12
HOP-62 = tested on: HOP-62
TK-10 = tested on: TK-10
M14 = tested on: M14
OVCAR-3 = tested on: OVCAR-3
OVCAR-8 = tested on: OVCAR-8
SN12C = tested on: SN12C
NCI-H226 = tested on: NCI-H226
SF-295 = tested on: SF-295
RXF 393 = tested on: RXF 393
UACC-257 = tested on: UACC-257
MDA-MB-435 = tested on: MDA-MB-435
HCT-15 = tested on: HCT-15
COLO 205 = tested on: COLO 205
K562 = tested on: K562
MDA-MB-231 = tested on: MDA-MB-231
SF-539 = tested on: SF-539
NCI-H522 = tested on: NCI-H522
OVCAR-5 = tested on: OVCAR-5
EKVX = tested on: EKVX
IGROV-1 = tested on: IGROV-1
Malme-3M = tested on: Malme-3M
CAKI-1 = tested on: CAKI-1
SNB-75 = tested on: SNB-75
HCT-116 = tested on: HCT-116
CCRF-CEM = tested on: CCRF-CEM
HCC 2998 = tested on: HCC 2998
A549 = tested on: A549
NCI-H23 = tested on: NCI-H23
SR = tested on: SR

In the case of `Clc1cc2nn(C3CCCCO3)nc2cc1Cl` (stereo unspecified), the GI50 (SK-MEL-2) is reported as > 100 µM (inactive), the GI50 (786-0) is reported as > 100 µM (inactive) and the GI50 (T47D) is reported as > 100 µM (inactive). The GI50 (UO-31) was > 100 µM (inactive), the GI50 (MDA-N) was > 100 µM (inactive) and the GI50 (HT-29) was > 100 µM (inactive). The GI50 (SK-MEL-5) was > 100 µM (inactive), the GI50 (U-251) was > 100 µM (inactive) and the GI50 (ACHN) was > 100 µM (inactive). For the same compound, the GI50 (UACC-62) was > 100 µM (inactive), the GI50 (SNB-19) was > 100 µM (inactive) and the GI50 (NCI/ADR-RES) was > 100 µM (inactive). The GI50 (DU-145) was > 100 µM (inactive), the GI50 (PC-3) was > 100 µM (inactive) and the GI50 (OVCAR-4) was > 100 µM (inactive). For the same compound, the GI50 (Hs-578T) was > 100 µM (inactive), the GI50 (MCF7) was > 100 µM (inactive) and the GI50 (BT-549) was > 100 µM (inactive). For the same compound, the GI50 (MOLT-4) was > 100 µM (inactive), the GI50 (SK-OV-3) was > 100 µM (inactive) and the GI50 (NCI-H460) was > 100 µM (inactive). The GI50 (KM12) was > 100 µM (inactive), the GI50 (HOP-62) was > 100 µM (inactive) and the GI50 (TK-10) was > 100 µM (inactive). The GI50 (M14) was > 100 µM (inactive), the GI50 (OVCAR-3) was > 100 µM (inactive) and the GI50 (OVCAR-8) was > 100 µM (inactive). The GI50 (SN12C) was > 100 µM (inactive), the GI50 (NCI-H226) was > 100 µM (inactive) and the GI50 (SF-295) was > 100 µM (inactive). For the same compound, the GI50 (RXF 393) was > 100 µM (inactive), the GI50 (UACC-257) was > 100 µM (inactive) and the GI50 (MDA-MB-435) was > 100 µM (inactive). For the same compound, the GI50 (HCT-15) was > 100 µM, the GI50 (COLO 205) was > 100 µM (inactive) and the GI50 (K562) was > 100 µM (inactive). The GI50 (MDA-MB-231) was > 100 µM (inactive), the GI50 (SF-539) was > 100 µM (inactive) and the GI50 (NCI-H522) was > 100 µM (inactive). For the same compound, the GI50 (OVCAR-5) was > 100 µM (inactive), the GI50 (EKVX) was > 100 µM (inactive) and the GI50 (IGROV-1) was > 100 µM (inactive). The GI50 (Malme-3M) was > 100 µM (inactive), the GI50 (CAKI-1) was > 100 µM (inactive) and the GI50 (SNB-75) was > 100 µM (inactive). For the same compound, the GI50 (HCT-116) was > 100 µM (inactive), the GI50 (CCRF-CEM) was > 100 µM (inactive) and the GI50 (HCC 2998) was > 100 µM (inactive). For the same compound, the GI50 (A549) was > 100 µM (inactive), the GI50 (NCI-H23) was > 100 µM (inactive) and the GI50 (SR) was > 100 µM (inactive).
